The values below are quoted from earlier work in patent US20190008784A1, “NOVEL SECNIDAZOLE SOFT GELATIN CAPSULE FORMULATIONS AND USES THEREOF” (SYMBIOMIX THERAPEUTICS, LLC, priority 2017, published 2019).

Series [1] relates to bacterial vaginosis. As to conditions: 500 mg ovule formulation compared with 37.5 mg gel.
The test system of series [2] is bacterial vaginosis. As to conditions: intravaginal 750 mg ovule compared with 500 mg ovule.

The structures appear in SMILES notation.

Regarding `Cc1ncc([N+](=O)[O-])n1CCO` [metronidazole], the “Effectiveness in the treatment of bacterial vaginosis” value in series [1] is on record as “significantly more effective”. For the same compound, the Cure rates result in series [2] was “higher cure rates”.
